Test results taken from the supplement of paper PMC11061612.

What was measured:
Taselisib = compound: Cc1nc(-c2cn3c(n2)-c2ccc(-c4cnn(C(C)(C)C(N)=O)c4)cc2OCC3)n(C(C)C)n1 [Taselisib]; conditions: max 10 µM
Summary of the method: (§1)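 Cancer cell lines were seeded into 1536-well plates in 7.5 μl medium (DMEM/F12 or RPMI, 10% FBS), held 24 hours at 37°C and 5% CO2, and dosed for 72 hours with final DMSO typically 0.2%. Luminescence from CellTiter-Glo 2.0, scaled between blank-well and DMSO-well means, served as viability. The single-agent IC50 was obtained from dose-response fits with a non-linear mixed effects model, each fit being a two-parameter logistic curve.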

AZD2811 = compound: CCN(CCO)CCCOc1ccc2c(Nc3cc(CC(=O)Nc4cccc(F)c4)[nH]n3)ncnc2c1 [AZD2811]; conditions: max 1 µM
Summary of the method: as §1

AZD1390 = compound: CC(C)n1c(=O)n(C)c2cnc3cc(F)c(-c4ccc(OCCCN5CCCCC5)nc4)cc3c21 [AZD1390]; conditions: max 0.3 µM
Summary of the method: as §1

Trametinib = compound: CC(=O)Nc1cccc(-n2c(=O)n(C3CC3)c(=O)c3c(Nc4ccc(I)cc4F)n(C)c(=O)c(C)c32)c1 [Trametinib]; conditions: max 1 µM
Summary of the method: as §1

AZD1775 = compound: C=CCn1c(=O)c2cnc(Nc3ccc(N4CCN(C)CC4)cc3)nc2n1-c1cccc(C(C)(C)O)n1 [AZD1775]; conditions: max 3 µM
Summary of the method: as §1

AZD5991 = compound: Cc1c2c(nn1C)CSCc1cc(n(C)n1)CSc1cc(c3ccccc3c1)OCCCc1c(C(=O)O)n(C)c3c-2c(Cl)ccc13 [AZD5991]; conditions: max 1 µM
Summary of the method: as §1

AZD4320 = compound: CN(CC[C@H](CSC1=CC=CC=C1)NC2=C(C=C(C=C2)S(=O)(=O)NC(=O)C3=CC=C(C=C3)N4CCC(CC4)[C@H](C5=CC=CC=C5C6=CC=C(C=C6)Cl)O)S(=O)(=O)C(F)(F)F)CCO [AZD4320]; conditions: max 1 µM
Summary of the method: as §1

Lapatinib = compound: CS(=O)(=O)CCNCc1ccc(-c2ccc3ncnc(Nc4ccc(OCc5cccc(F)c5)c(Cl)c4)c3c2)o1 [Lapatinib]; conditions: max 10 µM
Summary of the method: as §1

Palbociclib = compound: CC(=O)c1c(C)c2cnc(Nc3ccc(N4CCNCC4)cn3)nc2n(C2CCCC2)c1=O [Palbociclib]; conditions: max 10 µM
Summary of the method: as §1

AZD0156 = compound: CN(C)CCCOc1ccc(-c2ccc3ncc4c(c3c2)n(C2CCOCC2)c(=O)n4C)cn1 [AZD0156]; conditions: max 3 µM
Summary of the method: as §1

5-Fluorouracil = compound: O=c1[nH]cc(F)c(=O)[nH]1 [5-Fluorouracil]; conditions: max 20 µM
Summary of the method: as §1

SRA737 = compound: N#Cc1cnc(Nc2cc(NC[C@H]3CNCCO3)c(C(F)(F)F)cn2)cn1 [SRA737]; conditions: max 10 µM
Summary of the method: as §1

Prexasertib = compound: COc1cccc(OCCCN)c1-c1cc(Nc2cnc(C#N)cn2)n[nH]1 [Prexasertib]; conditions: max 1 µM
Summary of the method: as §1

Carboplatin = compound: C1CC(C1)(C(=O)[O-])C(=O)[O-].N.N.[Pt+2] [Carboplatin]; conditions: max 10 µM
Summary of the method: as §1

Gefitinib = compound: COc1cc2ncnc(Nc3ccc(F)c(Cl)c3)c2cc1OCCCN1CCOCC1 [Gefitinib]; conditions: max 10 µM
Summary of the method: as §1

[1] = compound: O=C(Nc1ccc2[nH]nc(-c3ccncc3)c2c1)[C@@H]1CCN(CC(=O)N2CCN(c3ccc(-c4ncccn4)cc3)CC2)C1; conditions: max 5 µM
Summary of the method: as §1

Crizotinib = compound: C[C@@H](Oc1cc(-c2cnn(C3CCNCC3)c2)cnc1N)c1c(Cl)ccc(F)c1Cl [Crizotinib]; conditions: max 10 µM
Summary of the method: as §1

Dasatinib = compound: CC1=C(C(=CC=C1)Cl)NC(=O)C2=CN=C(S2)NC3=CC(=NC(=N3)C)N4CCN(CC4)CCO [Dasatinib]; conditions: max 2 µM
Summary of the method: as §1

MK-2206 = compound: NC1(c2ccc(-c3nc4ccn5c(=O)[nH]nc5c4cc3-c3ccccc3)cc2)CCC1 [MK-2206]; conditions: max 10 µM
Summary of the method: as §1

AZD8186 = compound: C[C@@H](Nc1cc(F)cc(F)c1)c1cc(C(=O)N(C)C)cc2c(=O)cc(N3CCOCC3)oc12 [AZD8186]; conditions: max 10 µM
Summary of the method: as §1

SG3199 = compound: CC1=CN2[C@@H](C1)C=NC3=CC(=C(C=C3C2=O)OC)OCCCCCOC4=C(C=C5C(=C4)N=C[C@@H]6CC(=CN6C5=O)C)OC [SG3199]; conditions: max 0.001 µM
Summary of the method: as §1

AZD7648 = compound: Cc1cc2ncnn2cc1Nc1ncc2c(n1)n(C1CCOCC1)c(=O)n2C [AZD7648]; conditions: max 10 µM
Summary of the method: as §1

Gemcitabine = compound: Nc1ccn([C@@H]2O[C@H](CO)[C@@H](O)C2(F)F)c(=O)n1 [Gemcitabine]; conditions: max 0.3 µM
Summary of the method: as §1

Selumetinib = compound: Cn1cnc2c(F)c(Nc3ccc(Br)cc3Cl)c(C(=O)NOCCO)cc21 [Selumetinib]; conditions: max 10 µM
Summary of the method: as §1

Olaparib = compound: O=C(c1cc(Cc2n[nH]c(=O)c3ccccc23)ccc1F)N1CCN(C(=O)C2CC2)CC1 [Olaparib]; conditions: max 10 µM
Summary of the method: as §1

SN-38 = compound: CCc1c2c(nc3ccc(O)cc13)-c1cc3c(c(=O)n1C2)COC(=O)[C@]3(O)CC [SN-38]; conditions: max 0.3 µM
Summary of the method: as §1

Alisertib = compound: COc1cc(Nc2ncc3c(n2)-c2ccc(Cl)cc2C(c2c(F)cccc2OC)=NC3)ccc1C(=O)O [Alisertib]; conditions: max 10 µM
Summary of the method: as §1

Savolitinib = compound: C[C@@H](c1ccc2nccn2c1)n1nnc2ncc(-c3cnn(C)c3)nc21 [Savolitinib]; conditions: max 1 µM
Summary of the method: as §1

Etoposide = compound: COc1cc([C@@H]2c3cc4c(cc3[C@@H](O[C@@H]3O[C@@H]5CO[C@@H](C)O[C@H]5[C@H](O)[C@H]3O)[C@H]3COC(=O)[C@H]23)OCO4)cc(OC)c1O [Etoposide]; conditions: max 10 µM
Summary of the method: as §1

AZD5153 = compound: COc1nnc2ccc(N3CCC(c4ccc(OCCN5CCN(C)C(=O)[C@H]5C)cc4)CC3)nn12 [AZD5153]; conditions: max 1 µM
Summary of the method: as §1

AZD5363 = compound: C1CN(CCC1(C(=O)N[C@@H](CCO)C2=CC=C(C=C2)Cl)N)C3=NC=NC4=C3C=CN4 [AZD5363]; conditions: max 10 µM
Summary of the method: as §1

AZD6738 = compound: C[C@@H]1COCCN1C2=NC(=NC(=C2)C3(CC3)[S@](=N)(=O)C)C4=C5C=CNC5=NC=C4 [AZD6738]; conditions: max 10 µM
Summary of the method: as §1

Paclitaxel = compound: CC(=O)O[C@H]1C(=O)[C@@]2(C)[C@H]([C@H](OC(=O)c3ccccc3)[C@]3(O)C[C@H](OC(=O)[C@H](O)[C@@H](NC(=O)c4ccccc4)c4ccccc4)C(C)=C1C3(C)C)[C@]1(OC(C)=O)CO[C@@H]1C[C@@H]2O [Paclitaxel]; conditions: max 3 µM
Summary of the method: as §1

Doxorubicin = compound: COc1cccc2c1C(=O)c1c(O)c3c(c(O)c1C2=O)C[C@@](O)(C(=O)CO)C[C@@H]3O[C@H]1C[C@H](N)[C@H](O)[C@H](C)O1 [Doxorubicin]; conditions: max 1 µM
Summary of the method: as §1

Venetoclax = compound: CC1(C)CCC(CN2CCN(c3ccc(C(=O)NS(=O)(=O)c4ccc(NCC5CCOCC5)c([N+](=O)[O-])c4)c(Oc4cnc5[nH]ccc5c4)c3)CC2)=C(c2ccc(Cl)cc2)C1 [Venetoclax]; conditions: max 1 µM
Summary of the method: as §1

Cell Line	IC50, cell viability 72 h (Taselisib)	IC50, cell viability 72 h (AZD2811)	IC50, cell viability 72 h (AZD1390)	IC50, cell viability 72 h (Trametinib)	IC50, cell viability 72 h (AZD1775)	IC50, cell viability 72 h (AZD5991)	IC50, cell viability 72 h (AZD4320)	IC50, cell viability 72 h (Lapatinib)	IC50, cell viability 72 h (Palbociclib)	IC50, cell viability 72 h (AZD0156)	IC50, cell viability 72 h (5-Fluorouracil)	IC50, cell viability 72 h (SRA737)	IC50, cell viability 72 h (Prexasertib)	IC50, cell viability 72 h (Carboplatin)	IC50, cell viability 72 h (Gefitinib)	IC50, cell viability 72 h [1]	IC50, cell viability 72 h (Crizotinib)	IC50, cell viability 72 h (Dasatinib)	IC50, cell viability 72 h (MK-2206)	IC50, cell viability 72 h (AZD8186)	IC50, cell viability 72 h (SG3199)	IC50, cell viability 72 h (AZD7648)	IC50, cell viability 72 h (Gemcitabine)	IC50, cell viability 72 h (Selumetinib)	IC50, cell viability 72 h (Olaparib)	IC50, cell viability 72 h (SN-38)	IC50, cell viability 72 h (Alisertib)	IC50, cell viability 72 h (Savolitinib)	IC50, cell viability 72 h (Etoposide)	IC50, cell viability 72 h (AZD5153)	IC50, cell viability 72 h (AZD5363)	IC50, cell viability 72 h (AZD6738)	IC50, cell viability 72 h (Paclitaxel)	IC50, cell viability 72 h (Doxorubicin)	IC50, cell viability 72 h (Venetoclax)
SF539 (Glioblastoma)	3.75 µM	> 1 µM	> 0.3 µM	> 1 µM	0.185 µM	> 1 µM	> 1 µM	> 10 µM	> 10 µM	> 3 µM	14.5 µM	1.93 µM	0.00882 µM	> 10 µM	> 10 µM	3.22 µM	9.82 µM	1.63 µM	9.37 µM	> 10 µM	> 0.001 µM	> 10 µM	0.0239 µM	> 10 µM	> 10 µM	0.0189 µM	4.93 µM	> 1 µM	2.14 µM	0.37 µM	3.27 µM	2.05 µM	0.00753 µM	0.351 µM	> 1 µM
PC-3_[JPC-3] (Lung Adenocarcinoma)	> 10 µM	> 1 µM	> 0.3 µM	> 1 µM	> 3 µM	> 1 µM	> 1 µM	5.12 µM	> 10 µM	> 3 µM	> 20 µM	> 10 µM	> 1 µM	> 10 µM	–	> 5 µM	> 10 µM	0.853 µM	> 10 µM	> 10 µM	> 0.001 µM	> 10 µM	0.23 µM	> 10 µM	> 10 µM	0.0359 µM	> 10 µM	> 1 µM	> 10 µM	> 1 µM	> 10 µM	> 10 µM	0.416 µM	> 1 µM	> 1 µM
NB12 (Neuroblastoma)	0.968 µM	0.342 µM	> 0.3 µM	> 1 µM	0.731 µM	> 1 µM	0.0311 µM	> 10 µM	> 10 µM	> 3 µM	> 20 µM	> 10 µM	–	> 10 µM	> 10 µM	> 5 µM	9.85 µM	> 2 µM	7.04 µM	> 10 µM	–	> 10 µM	0.0574 µM	> 10 µM	> 10 µM	0.00661 µM	–	> 1 µM	> 10 µM	0.217 µM	> 10 µM	> 10 µM	0.015 µM	–	0.333 µM
